From PubChem BioAssay AID2060502 (Molecular Pharmacology Branch, DTP, NCI, 2025)

Test system: 885724-159-R-J1-PDC complex spheroid viability
Experiment: Anticancer human tumor 885724-159-R-J1-PDC patient-derived pancreatic adenocarcinoma cell line growth inhibition [GQUAD]
Conditions: for IC50: curve of first compound; for viability, T/C: stronger effect = lower value
Summary of the method: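 Tumor cells were grown as complex spheroids with HUVEC endothelial cells and mesenchymal stem cells as stroma. G-quadruplex stabilizers were combined with targeted agents over half-log dilutions from near the clinical Cmax, or from 10 microM.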

[1] = second compound 0.0316 µM, first compound 0.0316 µM
[2] = second compound 0.0316 µM, first compound 0.1 µM
[3] = second compound 0.0316 µM, first compound 0.316 µM
[4] = second compound 0.0316 µM, first compound 1 µM
[5] = second compound 0.0316 µM, first compound 3.16 µM
[6] = second compound 0.0316 µM, first compound 10 µM
[7] = second compound 0.1 µM, first compound 0.0316 µM
[8] = second compound 0.1 µM, first compound 0.1 µM
[9] = second compound 0.1 µM, first compound 0.316 µM
[10] = second compound 0.1 µM, first compound 1 µM
[11] = second compound 0.1 µM, first compound 3.16 µM
[12] = second compound 0.1 µM, first compound 10 µM
[13] = second compound 0.316 µM, first compound 0.0316 µM
[14] = second compound 0.316 µM, first compound 0.1 µM
[15] = second compound 0.316 µM, first compound 0.316 µM
[16] = second compound 0.316 µM, first compound 1 µM
[17] = second compound 0.316 µM, first compound 3.16 µM
[18] = second compound 0.316 µM, first compound 10 µM
[19] = second compound 1 µM, first compound 0.0316 µM
[20] = second compound 1 µM, first compound 0.1 µM
[21] = second compound 1 µM, first compound 0.316 µM
[22] = second compound 1 µM, first compound 1 µM
[23] = second compound 1 µM, first compound 3.16 µM
[24] = second compound 1 µM, first compound 10 µM
[25] = second compound 3.16 µM, first compound 0.0316 µM
[26] = second compound 3.16 µM, first compound 0.1 µM
[27] = second compound 3.16 µM, first compound 0.316 µM
[28] = second compound 3.16 µM, first compound 1 µM
[29] = second compound 3.16 µM, first compound 3.16 µM
[30] = second compound 3.16 µM, first compound 10 µM
[31] = second compound 10 µM, first compound 0.0316 µM
[32] = second compound 10 µM, first compound 0.1 µM
[33] = second compound 10 µM, first compound 0.316 µM
[34] = second compound 10 µM, first compound 1 µM
[35] = second compound 10 µM, first compound 3.16 µM
[36] = second compound 10 µM, first compound 10 µM
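Note: spheroids exposed to agents for seven days before readout.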
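Throughout, for viability, T/C: percent of vehicle control viability where 100% = DMSO wells.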

Structure (SMILES): CC(C)(O)C1CCC(Nc2ccc3ncc(-c4cccc(C(F)(F)F)c4)n3n2)CC1 (stereo unspecified) + Cc1cnc(CNC(=O)c2c(=O)c3ccc(N4CCCN(C)CC4)nc3n3c2sc2ccccc23)cn1
- IC50 (second compound 0.0316 µM): 3140 nM
- IC50 (second compound 0.1 µM): 4180 nM
- IC50 (second compound 0.316 µM): 3880 nM
- IC50 (second compound 1 µM): 2610 nM
- IC50 (second compound 3.16 µM): 1190 nM
- IC50 (second compound 10 µM): 1040 nM
- viability, T/C [1]: 112%
- viability, T/C [2]: 86.4%
- viability, T/C [3]: 93.2%
- viability, T/C [4]: 70.3%
- viability, T/C [5]: 44.2%
- viability, T/C [6]: 40.6%
- viability, T/C [7]: 108%
- viability, T/C [8]: 103%
- viability, T/C [9]: 91.2%
- viability, T/C [10]: 79.1%
- viability, T/C [11]: 45.5%
- viability, T/C [12]: 48.1%
- viability, T/C [13]: 94%
- viability, T/C [14]: 89.9%
- viability, T/C [15]: 79.4%
- viability, T/C [16]: 71.1%
- viability, T/C [17]: 50.4%
- viability, T/C [18]: 39.9%
- viability, T/C [19]: 88.5%
- viability, T/C [20]: 73.2%
- viability, T/C [21]: 77.2%
- viability, T/C [22]: 67%
- viability, T/C [23]: 45.2%
- viability, T/C [24]: 36.7%
- viability, T/C [25]: 73.8%
- viability, T/C [26]: 65.6%
- viability, T/C [27]: 64.9%
- viability, T/C [28]: 55%
- viability, T/C [29]: 28.4%
- viability, T/C [30]: 11.7%
- viability, T/C [31]: 62%
- viability, T/C [32]: 69.4%
- viability, T/C [33]: 62.5%
- viability, T/C [34]: 51.8%
- viability, T/C [35]: 9.65%
- viability, T/C [36]: 0.29%

Structure (SMILES): CCCS(=O)(=O)Nc1ccc(F)c(C(=O)c2c[nH]c3ncc(-c4ccc(Cl)cc4)cc23)c1F + Cc1cnc(CNC(=O)c2c(=O)c3ccc(N4CCCN(C)CC4)nc3n3c2sc2ccccc23)cn1
- IC50 (second compound 0.0316 µM): > 10000 nM
- IC50 (second compound 0.1 µM): > 10000 nM
- IC50 (second compound 0.316 µM): > 10000 nM
- IC50 (second compound 1 µM): > 10000 nM
- IC50 (second compound 3.16 µM): > 10000 nM
- IC50 (second compound 10 µM): > 10000 nM
- viability, T/C [1]: 95%
- viability, T/C [2]: 106%
- viability, T/C [3]: 113%
- viability, T/C [4]: 141%
- viability, T/C [5]: 126%
- viability, T/C [6]: 74%
- viability, T/C [7]: 124%
- viability, T/C [8]: 128%
- viability, T/C [9]: 116%
- viability, T/C [10]: 135%
- viability, T/C [11]: 128%
- viability, T/C [12]: 83%
- viability, T/C [13]: 94%
- viability, T/C [14]: 103%
- viability, T/C [15]: 96.3%
- viability, T/C [16]: 98%
- viability, T/C [17]: 102%
- viability, T/C [18]: 72.2%
- viability, T/C [19]: 97.6%
- viability, T/C [20]: 84.6%
- viability, T/C [21]: 96%
- viability, T/C [22]: 96.7%
- viability, T/C [23]: 115%
- viability, T/C [24]: 70.6%
- viability, T/C [25]: 76.7%
- viability, T/C [26]: 75.2%
- viability, T/C [27]: 78.8%
- viability, T/C [28]: 80.3%
- viability, T/C [29]: 91.6%
- viability, T/C [30]: 58.7%
- viability, T/C [31]: 62.8%
- viability, T/C [32]: 71.2%
- viability, T/C [33]: 61.1%
- viability, T/C [34]: 73.4%
- viability, T/C [35]: 76%
- viability, T/C [36]: 50.2%

Structure (SMILES): Cc1[nH]c2ccccc2c1CCNCc1ccc(/C=C/C(=O)NO)cc1 + Cc1cnc(CNC(=O)c2c(=O)c3ccc(N4CCCN(C)CC4)nc3n3c2sc2ccccc23)cn1
- IC50 (second compound 0.0316 µM): 291 nM
- IC50 (second compound 0.1 µM): 241 nM
- IC50 (second compound 0.316 µM): 193 nM
- IC50 (second compound 1 µM): 137 nM
- IC50 (second compound 3.16 µM): 93.5 nM
- IC50 (second compound 10 µM): 23.8 nM
- viability, T/C (second compound 0.0316 µM, first compound 0.000999 µM): 111%
- viability, T/C (second compound 0.0316 µM, first compound 0.00316 µM): 103%
- viability, T/C (second compound 0.0316 µM, first compound 0.00999 µM): 89.7%
- viability, T/C [1]: 95.4%
- viability, T/C (second compound 0.0316 µM, first compound 0.0999 µM): 97.5%
- viability, T/C [3]: 46.4%
- viability, T/C (second compound 0.1 µM, first compound 0.000999 µM): 100%
- viability, T/C (second compound 0.1 µM, first compound 0.00316 µM): 114%
- viability, T/C (second compound 0.1 µM, first compound 0.00999 µM): 117%
- viability, T/C [7]: 98.8%
- viability, T/C (second compound 0.1 µM, first compound 0.0999 µM): 67.2%
- viability, T/C [9]: 44.7%
- viability, T/C (second compound 0.316 µM, first compound 0.000999 µM): 107%
- viability, T/C (second compound 0.316 µM, first compound 0.00316 µM): 103%
- viability, T/C (second compound 0.316 µM, first compound 0.00999 µM): 102%
- viability, T/C [13]: 83.1%
- viability, T/C (second compound 0.316 µM, first compound 0.0999 µM): 72.8%
- viability, T/C [15]: 34.5%
- viability, T/C (second compound 1 µM, first compound 0.000999 µM): 90%
- viability, T/C (second compound 1 µM, first compound 0.00316 µM): 78.6%
- viability, T/C (second compound 1 µM, first compound 0.00999 µM): 75.8%
- viability, T/C [19]: 71.5%
- viability, T/C (second compound 1 µM, first compound 0.0999 µM): 53.5%
- viability, T/C [21]: 37%
- viability, T/C (second compound 3.16 µM, first compound 0.000999 µM): 79.3%
- viability, T/C (second compound 3.16 µM, first compound 0.00316 µM): 72.5%
- viability, T/C (second compound 3.16 µM, first compound 0.00999 µM): 68%
- viability, T/C [25]: 63.6%
- viability, T/C (second compound 3.16 µM, first compound 0.0999 µM): 49.3%
- viability, T/C [27]: 30.6%
- viability, T/C (second compound 10 µM, first compound 0.000999 µM): 69.1%
- viability, T/C (second compound 10 µM, first compound 0.00316 µM): 73.7%
- viability, T/C (second compound 10 µM, first compound 0.00999 µM): 56.9%
- viability, T/C [31]: 46.1%
- viability, T/C (second compound 10 µM, first compound 0.0999 µM): 35.4%
- viability, T/C [33]: 23.8%
